Biological target: T1, mMR (Mus musculus, UniProt Q8VII8)
T1 construct: the level of expression of the endogenous mMR observed in the control males; endogenous in cells; host or cells: whole mice in vivo: double transgenic alphaMHC-tTA/MR animals, with cardiac mMR mRNA lowered by about 50% by the antisense, and wild or single transgenic controls
T1 sequence (Q8VII8 1-978): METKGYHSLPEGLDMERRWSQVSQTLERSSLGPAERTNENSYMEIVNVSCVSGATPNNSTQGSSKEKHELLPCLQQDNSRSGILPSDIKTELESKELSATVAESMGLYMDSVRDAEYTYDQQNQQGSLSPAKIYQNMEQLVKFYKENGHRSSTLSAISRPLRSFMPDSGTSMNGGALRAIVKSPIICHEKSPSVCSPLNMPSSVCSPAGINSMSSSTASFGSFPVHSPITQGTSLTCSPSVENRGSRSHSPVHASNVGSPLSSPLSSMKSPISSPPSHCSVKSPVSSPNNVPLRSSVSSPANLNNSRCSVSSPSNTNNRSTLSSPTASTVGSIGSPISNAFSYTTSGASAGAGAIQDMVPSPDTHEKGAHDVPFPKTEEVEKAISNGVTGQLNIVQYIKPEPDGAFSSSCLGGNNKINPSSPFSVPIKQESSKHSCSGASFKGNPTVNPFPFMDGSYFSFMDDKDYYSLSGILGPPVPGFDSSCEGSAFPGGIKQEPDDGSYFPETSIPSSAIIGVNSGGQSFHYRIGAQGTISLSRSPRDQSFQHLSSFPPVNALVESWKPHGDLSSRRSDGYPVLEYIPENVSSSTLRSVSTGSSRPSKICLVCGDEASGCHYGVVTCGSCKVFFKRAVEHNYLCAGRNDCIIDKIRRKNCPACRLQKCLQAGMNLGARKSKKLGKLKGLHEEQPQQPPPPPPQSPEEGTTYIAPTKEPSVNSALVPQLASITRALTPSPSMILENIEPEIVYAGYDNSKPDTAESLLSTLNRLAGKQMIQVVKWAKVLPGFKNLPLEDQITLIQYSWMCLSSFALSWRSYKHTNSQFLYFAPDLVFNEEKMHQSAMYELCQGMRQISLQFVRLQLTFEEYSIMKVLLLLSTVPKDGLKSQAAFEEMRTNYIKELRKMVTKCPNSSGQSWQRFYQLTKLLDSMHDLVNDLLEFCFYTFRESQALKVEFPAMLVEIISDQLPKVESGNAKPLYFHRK
Experiment: Administration of spironolactone to control animals (wild or single transgenic)
Assay type: in vivo, mice
Conditions: 30 mg/kg/day

Compound: CC(=O)S[C@@H]1CC2=CC(=O)CC[C@]2(C)[C@H]2CC[C@@]3(C)[C@@H](CC[C@@]34CCC(=O)O4)[C@H]12 [spironolactone]
- functional or structural alteration of the heart: does not produce any functional or structural alteration

Source: US20040038226A1, “Transgenic animal model by mineralocorticoid receptor antisense expression” (priority 2000, published 2004)
